# Laboratory results as given in patent US20250205235A1, “DOSE REGIMEN FOR VERICIGUAT” (ADVERIO PHARMA GMBH, priority 2023, published 2025).
# Experiments:
# [1] = some patients receiving vericiguat in clinical trials; cited from earlier work
# [2] = system: participants with chronic heart failure with reduced ejection fraction; assay: Phase 2b open-label clinical study of tolerability and safety of a 5 mg initiation dose of vericiguat (NCT06195930)
# Description: A Phase 2b open-label clinical study to evaluate the tolerability and safety of an initiation dose of 5 mg of Vericiguat in participants with chronic heart failure with reduced ejection fraction.
# The patients had symptomatic chronic heart failure with reduced ejection fraction (HFrEF). […] Participants underwent a screening visit to assess eligibility. Eligible participants waited a mandatory 2 weeks before returning for Visit 1 in order to be clinically and hemodynamically stable. At Visit 1 (V1), participants received vericiguat with directions to take a 5 mg tablet once daily for 2 weeks. Participants returned for Visit 2 (V2) after 2 weeks of treatment. There were unplanned healthcare visits for heart failure between Visits 1 and 2 at the discretion of the investigator.
# Primary objective was to evaluate the tolerability of 5 mg as a starting dose of vericiguat. Endpoint: Treatment tolerability, defined as the completion of the two-week 5 mg dose without discontinuation of study intervention and without moderate to severe symptomatic hypotension between Visit 1 (V1) and Visit 2 (V2) Secondary objective 1 was to describe safety events of initiation of 5 mg dose. Endpoints: Any adverse event reported between V1 and V2. Absence of adverse events related to study intervention between V1 and V2.
# Secondary objective 2 was to further evaluate the tolerability of 5 mg as a starting dose of vericiguat. Endpoint: Continuous intake of study intervention between V1 and V2 or restart of study intervention after any temporary interruption.
# Dose changes in GDMT medications (RAS blockade, Beta-blocker, MRA, or SGLT2i) or oral diuretics for 2 weeks were discouraged, except when mandated by known side-effects for individual drug classes (e.g., hyperkalemia for MRA or angioedema for ACE-inhibitors/ARNI). Use of short and long-acting nitrates was permitted.
# On Days 1-14, 5.0 mg Verquvo® vericiguat was administered orally once daily. The endpoint was tolerability based on need for treatment interruption between Days 1 and Day 14.
# [3] = 106 started treatment, 5 mg once daily for 2 weeks
compound,measurement,setting,value
"COC(=O)Nc1c(N)nc(-c2nn(Cc3ccccc3F)c3ncc(F)cc23)nc1N [Vericiguat, methyl {4,6-diamino-2-[5-fluoro-1-(2-fluorobenzyl)-1H-pyrazolo[3,4-b]pyridin-3-yl]pyrimidin-5-yl}carbamate]",Effect on systolic blood pressure compared with placebo,[1],reduction of systolic blood pressure
same,Difference between participants with and without recent worsening heart failure events in meeting primary and secondary endpoints,"[2]; 5 mg dose, 2 weeks",no major differences
same,Primary endpoint: participants who completed the 2-week treatment period without moderate to severe symptomatic hypotension and without temporary treatment interruptions exceeding 1 day,"[2]; 5 mg dose, 2 weeks",93.4%
same,Secondary endpoint 1: participants who completed the 2-week treatment period without reported intervention-related adverse events,"[2]; 5 mg dose, 2 weeks",90.6%
same,Secondary endpoint 2: participants who completed treatment with continuous intervention intake or restarted study intervention after a temporary interruption,"[2]; 5 mg dose, 2 weeks",96.2%
same,patients who continued through the 14-day titration without a medical need for interruption,"[2]; 5.0 mg orally once daily, Days 1-14",at least 90%
same,TREATMENT phase: Completed,[2]; [3],102 (96.2%) Number of participants (%)
same,TREATMENT phase: Did not complete,[2]; [3],4 (3.8%) Number of participants (%)
same,Tolerability of initiating treatment at 5 mg (in words),"[2]; HFrEF population with and without recent worsening heart failure events, on current GDMT",well tolerated
same,discontinuations for AE,"[2]; OVERALL N = 106, SAF, 5 mg once daily, two weeks",4 discontinuations
same,Any AE,"[2]; SAF N = 106, 5 mg",14 (13.2%) Number (%) of participants
same,Any AE leading to discontinuation of intervention,"[2]; SAF N = 106, 5 mg",4 (3.8%) Number (%) of participants
same,"Any AE leading to dose modification of study intervention (delays, interruptions and reductions)","[2]; SAF N = 106, 5 mg",6 (5.7%) Number (%) of participants
same,Any AE of special interest,"[2]; SAF N = 106, 5 mg",6 (5.7%) Number (%) of participants
same,Any AE related to procedures required by the protocol,"[2]; SAF N = 106, 5 mg",0 Number (%) of participants
same,Any SAE,"[2]; SAF N = 106, 5 mg",1 (0.9%) Number (%) of participants
same,Any SAE leading to discontinuation of intervention,"[2]; SAF N = 106, 5 mg",0 Number (%) of participants
same,Any SAE related to procedures required by the protocol,"[2]; SAF N = 106, 5 mg",0 Number (%) of participants
same,Any intervention-related AE,"[2]; SAF N = 106, 5 mg",10 (9.4%) Number (%) of participants
same,Any intervention-related SAE,"[2]; SAF N = 106, 5 mg",0 Number (%) of participants
same,Life-threatening SAE,"[2]; SAF N = 106, 5 mg",0 Number (%) of participants
same,Maximum intensity for any AE: MILD,"[2]; SAF N = 106, 5 mg",9 (8.5%) Number (%) of participants
same,Maximum intensity for any AE: MODERATE,"[2]; SAF N = 106, 5 mg",4 (3.8%) Number (%) of participants
same,Maximum intensity for any AE: SEVERE,"[2]; SAF N = 106, 5 mg",1 (0.9%) Number (%) of participants
same,Maximum intensity for intervention-related AEs: MILD,"[2]; SAF N = 106, 5 mg",8 (7.5%) Number (%) of participants
same,Maximum intensity for intervention-related AEs: MODERATE,"[2]; SAF N = 106, 5 mg",2 (1.9%) Number (%) of participants
same,Participants with total duration of interruption/delay of 0 days,"[2]; SAF N = 106, 5 mg",102 (96.2%) n (%)
same,Participants with total duration of interruption/delay of 1 day,"[2]; SAF N = 106, 5 mg",1 (0.9%) n (%)
same,Participants with total duration of interruption/delay of 2 days,"[2]; SAF N = 106, 5 mg",3 (2.8%) n (%)
same,SAE requiring hospitalization,"[2]; SAF N = 106, 5 mg",1 (0.9%) Number (%) of participants
same,SAE resulting in substantial disruption of normal life functions,"[2]; SAF N = 106, 5 mg",0 Number (%) of participants
same,SAE with fatal outcome,"[2]; SAF N = 106, 5 mg",0 Number (%) of participants
same,SAE: Congenital anomaly or birth defect,"[2]; SAF N = 106, 5 mg",0 Number (%) of participants
same,SAE: Other,"[2]; SAF N = 106, 5 mg",0 Number (%) of participants
same,"Total Duration of Interruption/Delay, Max","[2]; SAF N = 106, 5 mg",2 days
same,"Total Duration of Interruption/Delay, Mean (SD)","[2]; SAF N = 106, 5 mg",0.1 (0.3) ^ days
same,"Total Duration of Interruption/Delay, Median","[2]; SAF N = 106, 5 mg",0.0 days
same,"Total Duration of Interruption/Delay, Min","[2]; SAF N = 106, 5 mg",0 days
same,"TREATMENT phase: Did not complete, primary reason ADVERSE EVENT",[2]; percentage of the participants who did not complete,4 (100.0%) Number of participants (%)
